Test results taken from patent publication US20230122344A1, “ANTAGONISTS OF THE MUSCARINIC ACETYLCHOLINE RECEPTOR M4” (Vanderbilt University, priority 2019, published 2023).

Biological target: T1, Human M4 (Homo sapiens, UniProt P08173)
T1 construct: expressed in transfected cells; host or cells: CHO-K1 (ATCC), co-transfected with chimeric G protein Gqi5
T1 sequence (P08173 1-479): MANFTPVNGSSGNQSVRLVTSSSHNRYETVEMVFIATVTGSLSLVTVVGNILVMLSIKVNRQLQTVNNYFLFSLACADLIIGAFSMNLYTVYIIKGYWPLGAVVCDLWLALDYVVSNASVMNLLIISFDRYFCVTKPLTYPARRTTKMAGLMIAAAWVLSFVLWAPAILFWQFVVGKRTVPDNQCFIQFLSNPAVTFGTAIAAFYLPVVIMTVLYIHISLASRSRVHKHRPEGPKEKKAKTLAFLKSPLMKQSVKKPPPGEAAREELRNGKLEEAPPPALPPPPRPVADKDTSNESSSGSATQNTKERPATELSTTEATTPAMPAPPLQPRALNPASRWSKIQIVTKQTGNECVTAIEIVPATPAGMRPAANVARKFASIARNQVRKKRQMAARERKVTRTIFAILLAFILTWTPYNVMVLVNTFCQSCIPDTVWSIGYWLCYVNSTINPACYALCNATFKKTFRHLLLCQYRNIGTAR
Experiment: mAChR M4 cell-based functional assay (calcium flux, antagonism of EC80 acetylcholine response)
Conditions: M4/Gqi5/CHO-K1 cells; for remaining activity at 30 µM: CHO-K1, % ACh maximum at 30 μM, read-out: Human M4 Emin; for IC50: decrease of response elicited by EC80 acetylcholine
Procedure, shortened: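 CHO-K1 cells stably expressing human or rat M4 with Gqi5, Fluo-4 loaded; calcium measured by fluorescence ratio on FDSS. Compound added, then EC20 acetylcholine at 143 s and EC80 at 268 s; IC50 from decrease of EC80 response, four-parameter logistic fit.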

remaining activity at 30 µM | IC50 | SMILES
2% | 1.05 nM | Fc1cc(F)c(F)c(-c2nnc(N[C@H]3C[C@@H]4CN(CCC5CCOCC5)C[C@@H]4C3)cc2C(F)F)c1 [compound 52, (3aR,5s,6aS)-N-(5-(difluoromethyl)-6-(2,3,5-trifluorophenyl)pyridazin-3-yl)-2-(2-(tetrahydro-2H-pyran-4-yl)ethyl)octahydrocyclopenta[c]pyrrol-5-amine]
2% | 19.1 nM | Fc1cc(F)c(F)c(-c2nnc(N[C@H]3C[C@@H]4CN(CC5CCCCC5)C[C@@H]4C3)cc2C(F)F)c1 [compound 53, (3aR,5s,6aS)-2-(cyclohexylmethyl)-N-(5-(difluoromethyl)-6-(2,3,5-trifluorophenyl)pyridazin-3-yl)octahydrocyclopenta[c]pyrrol-5-amine]
1% | 3.42 nM | OC1(CN2C[C@H]3C[C@H](Nc4cc(C(F)F)c(-c5cc(F)cc(F)c5F)nn4)C[C@H]3C2)CCCCC1 [compound 54, 1-(((3aR,5s,6aS)-5-((5-(difluoromethyl)-6-(2,3,5-trifluorophenyl)pyridazin-3-yl)amino)hexahydrocyclopenta[c]pyrrol-2(1H)-yl)methyl)cyclohexan-1-ol]
2% | 3.12 nM | OC1(CN2C[C@H]3C[C@H](Nc4cc(C(F)F)c(-c5cc(F)cc(F)c5F)nn4)C[C@H]3C2)CCOCC1 [compound 55, 4-(((3aR,5s,6aS)-5-((5-(difluoromethyl)-6-(2,3,5-trifluorophenyl)pyridazin-3-yl)amino)hexahydrocyclopenta[c]pyrrol-2(1H)-yl)methyl)tetrahydro-2H-pyran-4-ol]
2% | 0.66 nM | Fc1cc(F)c(F)c(-c2nnc(N[C@H]3C[C@@H]4CN(C[C@@H]5COCCO5)C[C@@H]4C3)cc2C(F)F)c1 [compound 56, (3aR,5s,6aS)-2-(((R)-1,4-dioxan-2-yl)methyl)-N-(5-(difluoromethyl)-6-(2,3,5-trifluorophenyl)pyridazin-3-yl)octahydrocyclopenta[c]pyrrol-5-amine]
3% | 15.5 nM | Fc1cc(F)c(F)c(-c2nnc(N[C@H]3C[C@@H]4CN(C[C@H]5COCCO5)C[C@@H]4C3)cc2C(F)F)c1 [compound 57, (3aR,5s,6aS)-2-(((S)-1,4-dioxan-2-yl)methyl)-N-(5-(difluoromethyl)-6-(2,3,5-trifluorophenyl)pyridazin-3-yl)octahydrocyclopenta[c]pyrrol-5-amine]
3% | 6.42 nM | Fc1ccc(F)c(-c2cc(C(F)F)c(N[C@H]3C[C@@H]4CN(CC5CCOCC5)C[C@@H]4C3)nn2)c1 [compound 58, (3aR,5s,6aS)-N-(4-(difluoromethyl)-6-(2,5-difluorophenyl)pyridazin-3-yl)-2-((tetrahydro-2H-pyran-4-yl)methyl)octahydrocyclopenta[c]pyrrol-5-amine]
3% | 1.2 nM | Cc1ccc(F)cc1-c1cc(C(F)F)c(N[C@H]2C[C@@H]3CN(CC4CCOCC4)C[C@@H]3C2)nn1 [compound 59, (3aR,5s,6aS)-N-(4-(difluoromethyl)-6-(5-fluoro-2-methylphenyl)pyridazin-3-yl)-2-((tetrahydro-2H-pyran-4-yl)methyl)octahydrocyclopenta[c]pyrrol-5-amine]
2% | 0.66 nM | [2H]C([2H])(C1CCOCC1)N1C[C@H]2C[C@H](Nc3nnc(-c4cc(F)ccc4F)c(C)c3C)C[C@H]2C1 [compound 60, (3aR,5s,6aS)-N-(6-(2,5-difluorophenyl)-4,5-dimethylpyridazin-3-yl)-2-((tetrahydro-2H-pyran-4-yl)methyl-d2)octahydrocyclopenta[c]pyrrol-5-amine]
2% | 0.52 nM | [2H]C([2H])(C1CCOCC1)N1C[C@H]2C[C@H](Nc3nnc(-c4ccccc4F)c(C)c3C)C[C@H]2C1 [compound 61, (3aR,5s,6aS)-N-(6-(2-fluorophenyl)-4,5-dimethylpyridazin-3-yl)-2-((tetrahydro-2H-pyran-4-yl)methyl-d2)octahydrocyclopenta[c]pyrrol-5-amine]
2% | 0.71 nM | [2H]C([2H])(C1CCOCC1)N1C[C@H]2C[C@H](Nc3nnc(-c4cccc(F)c4)c(C)c3C)C[C@H]2C1 [compound 62, (3aR,5s,6aS)-N-(6-(3-fluorophenyl)-4,5-dimethylpyridazin-3-yl)-2-((tetrahydro-2H-pyran-4-yl)methyl-d2)octahydrocyclopenta[c]pyrrol-5-amine]
2% | 0.92 nM | [2H]C([2H])(C1CCOCC1)N1C[C@H]2C[C@H](Nc3nnc(-c4cc(F)ccc4C)c(C)c3C)C[C@H]2C1 [compound 63, (3aR,5s,6aS)-N-(6-(5-fluoro-2-methylphenyl)-4,5-dimethylpyridazin-3-yl)-2-((tetrahydro-2H-pyran-4-yl)methyl-d2)octahydrocyclopenta[c]pyrrol-5-amine]
3% | 7.69 nM | Cc1c(-c2cc(F)ccc2F)nnc(N[C@H]2C[C@@H]3CN(CC4CCOCC4)C[C@@H]3C2)c1C#N [compound 64, 6-(2,5-difluorophenyl)-5-methyl-3-(((3aR,5s,6aS)-2-((tetrahydro-2H-pyran-4-yl)methyl)octahydrocyclopenta[c]pyrrol-5-yl)amino)pyridazine-4-carbonitrile]
8% | 2930 nM | Cc1c(Cl)nnc(N[C@H]2C[C@@H]3CN(CC4CCOCC4)C[C@@H]3C2)c1C#N [compound 65, 6-chloro-5-methyl-3-(((3aR,5s,6aS)-2-((tetrahydro-2H-pyran-4-yl)methyl)octahydrocyclopenta[c]pyrrol-5-yl)amino)pyridazine-4-carbonitrile]
3% | 17.9 nM | Cc1c(-c2cc(F)ccc2F)nnc(N[C@H]2C[C@@H]3CN(C[C@H]4CC5CCC4O5)C[C@@H]3C2)c1C#N (stereo partly drawn) [compound 66, 3-(((3aR,5s,6aS)-2-(((2R)-7-oxabicyclo[2.2.1]heptan-2-yl)methyl)octahydrocyclopenta[c]pyrrol-5-yl)amino)-6-(2,5-difluorophenyl)-5-methylpyridazine-4-carbonitrile]
2% | 0.83 nM | Cc1c(-c2cc(F)ccc2Cl)nnc(N[C@H]2C[C@@H]3CN(CC4CCOCC4)C[C@@H]3C2)c1C#N [compound 67, 6-(2-chloro-5-fluorophenyl)-5-methyl-3-(((3aR,5s,6aS)-2-((tetrahydro-2H-pyran-4-yl)methyl)octahydrocyclopenta[c]pyrrol-5-yl)amino)pyridazine-4-carbonitrile]
3% | 0.97 nM | Cc1c(-c2ccccc2F)nnc(N[C@H]2C[C@@H]3CN(CC4CCOCC4)C[C@@H]3C2)c1C#N [compound 68, 6-(2-fluorophenyl)-5-methyl-3-(((3aR,5s,6aS)-2-((tetrahydro-2H-pyran-4-yl)methyl)octahydrocyclopenta[c]pyrrol-5-yl)amino)pyridazine-4-carbonitrile]
3% | 8.42 nM | Cc1c(-c2cccc(F)c2)nnc(N[C@H]2C[C@@H]3CN(CC4CCOCC4)C[C@@H]3C2)c1C#N [compound 69, 6-(3-fluorophenyl)-5-methyl-3-(((3aR,5s,6aS)-2-((tetrahydro-2H-pyran-4-yl)methyl)octahydrocyclopenta[c]pyrrol-5-yl)amino)pyridazine-4-carbonitrile]
11% | 24.1 nM | [2H]C([2H])(C1CCOCC1)N1C[C@H]2C[C@H](Nc3nnc(-c4ccc(F)cc4)c(C)c3C)C[C@H]2C1 [compound 70, (3aR,5s,6aS)-N-(6-(4-fluorophenyl)-4,5-dimethylpyridazin-3-yl)-2-((tetrahydro-2H-pyran-4-yl)methyl-d2)octahydrocyclopenta[c]pyrrol-5-amine]
2% | 12.7 nM | [2H]C([2H])(C1CCOCC1)N1C[C@H]2C[C@H](Nc3nnc(-c4ccc5ccccc5c4)c(C)c3C)C[C@H]2C1 [compound 71, (3aR,5s,6aS)-N-(4,5-dimethyl-6-(naphthalen-2-yl)pyridazin-3-yl)-2-((tetrahydro-2H-pyran-4-yl)methyl-d2)octahydrocyclopenta[c]pyrrol-5-amine]
4% | 0.91 nM | Cc1c(-c2ccc3nn(C)cc3c2)nnc(N[C@H]2C[C@@H]3CN(CC4CCOCC4)C[C@@H]3C2)c1C#N [compound 72, 5-methyl-6-(2-methyl-2H-indazol-5-yl)-3-(((3aR,5s,6aS)-2-((tetrahydro-2H-pyran-4-yl)methyl)octahydrocyclopenta[c]pyrrol-5-yl)amino)pyridazine-4-carbonitrile]
